Measurements from US12421232B2, “Kinase inhibitor compounds and compositions and methods of use” (ICAHN SCHOOL OF MEDICINE AT MOUNT SINAI, priority 2018, dated 2025).
Like-named read-outs stand apart in the source and are kept apart here.

How the values were obtained:
Test in all cases: KINOMEscan Assay (DiscoverX)
Format in all cases: binding
Conditions in all cases: read-out: % DMSO Ctrl
FLT3(N841I) = target: T1, FLT3(N841I) (Homo sapiens, UniProt P36888, N841I)
T1 construct: purchased DiscoverX
T1 sequence (P36888 27-993 N841I): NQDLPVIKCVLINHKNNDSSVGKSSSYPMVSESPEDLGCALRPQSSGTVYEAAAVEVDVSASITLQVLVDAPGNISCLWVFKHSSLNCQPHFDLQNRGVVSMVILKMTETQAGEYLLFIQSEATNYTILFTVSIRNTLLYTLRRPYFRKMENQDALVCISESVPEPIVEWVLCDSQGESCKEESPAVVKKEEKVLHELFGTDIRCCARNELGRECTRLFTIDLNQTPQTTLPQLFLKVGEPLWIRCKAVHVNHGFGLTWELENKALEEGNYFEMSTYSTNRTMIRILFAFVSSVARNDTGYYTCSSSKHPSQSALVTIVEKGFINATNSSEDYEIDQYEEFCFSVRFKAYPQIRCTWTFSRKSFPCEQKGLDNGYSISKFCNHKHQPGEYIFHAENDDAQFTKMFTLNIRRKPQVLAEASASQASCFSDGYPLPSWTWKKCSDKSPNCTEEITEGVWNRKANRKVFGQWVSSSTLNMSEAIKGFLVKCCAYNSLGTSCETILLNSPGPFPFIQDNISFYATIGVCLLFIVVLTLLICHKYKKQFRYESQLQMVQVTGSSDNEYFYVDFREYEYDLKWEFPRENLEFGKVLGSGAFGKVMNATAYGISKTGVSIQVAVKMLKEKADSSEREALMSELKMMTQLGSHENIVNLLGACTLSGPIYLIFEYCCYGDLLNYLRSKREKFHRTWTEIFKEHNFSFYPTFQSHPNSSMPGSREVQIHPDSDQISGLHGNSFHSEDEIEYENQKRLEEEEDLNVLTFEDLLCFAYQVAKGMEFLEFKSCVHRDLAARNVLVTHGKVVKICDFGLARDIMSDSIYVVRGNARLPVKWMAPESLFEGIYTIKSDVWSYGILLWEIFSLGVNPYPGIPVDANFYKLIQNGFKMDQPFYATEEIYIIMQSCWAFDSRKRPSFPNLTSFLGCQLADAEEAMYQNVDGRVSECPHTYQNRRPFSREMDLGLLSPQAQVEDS

IRAK3 = target: T2, IRAK3 (Homo sapiens, UniProt Q9Y616)
T2 construct: purchased DiscoverX
T2 sequence (Q9Y616 1-596): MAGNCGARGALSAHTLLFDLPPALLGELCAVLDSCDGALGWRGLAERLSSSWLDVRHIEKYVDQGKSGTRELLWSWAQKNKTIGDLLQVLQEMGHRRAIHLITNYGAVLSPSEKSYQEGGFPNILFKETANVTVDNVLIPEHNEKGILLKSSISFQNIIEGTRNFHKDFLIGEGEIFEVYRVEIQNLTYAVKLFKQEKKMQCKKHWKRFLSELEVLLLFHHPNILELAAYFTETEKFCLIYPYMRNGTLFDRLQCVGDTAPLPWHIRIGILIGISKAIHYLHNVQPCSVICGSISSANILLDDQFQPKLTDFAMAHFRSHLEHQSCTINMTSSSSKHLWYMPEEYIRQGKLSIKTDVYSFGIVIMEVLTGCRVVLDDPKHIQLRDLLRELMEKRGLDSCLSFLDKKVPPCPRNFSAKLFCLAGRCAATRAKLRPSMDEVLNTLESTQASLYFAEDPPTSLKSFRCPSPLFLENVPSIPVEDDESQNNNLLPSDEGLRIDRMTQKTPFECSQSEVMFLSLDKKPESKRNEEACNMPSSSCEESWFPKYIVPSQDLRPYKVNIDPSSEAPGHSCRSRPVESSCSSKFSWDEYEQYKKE

KIT(V559D) = target: T3, KIT(V559D) (Homo sapiens, UniProt P10721, V559D)
T3 construct: purchased DiscoverX

[1] = target: T4, JAK3(JH1DOMAIN-CATALYTIC) (Homo sapiens, UniProt P52333)
T4 construct: JH1DOMAIN; purchased DiscoverX

EGFR(G719C) = target: T5, EGFR(G719C) (Homo sapiens, UniProt P00533, G719C)
T5 construct: purchased DiscoverX

PIKFYVE = target: T6, PIKFYVE (Homo sapiens, UniProt Q9Y2I7)
T6 construct: purchased DiscoverX

PIM2 = target: T7, PIM2 (Homo sapiens, UniProt Q9P1W9)
T7 construct: purchased DiscoverX

DYRK2 = target: T8, DYRK2 (Homo sapiens, UniProt Q92630)
T8 construct: purchased DiscoverX
T8 sequence (Q92630 1-601): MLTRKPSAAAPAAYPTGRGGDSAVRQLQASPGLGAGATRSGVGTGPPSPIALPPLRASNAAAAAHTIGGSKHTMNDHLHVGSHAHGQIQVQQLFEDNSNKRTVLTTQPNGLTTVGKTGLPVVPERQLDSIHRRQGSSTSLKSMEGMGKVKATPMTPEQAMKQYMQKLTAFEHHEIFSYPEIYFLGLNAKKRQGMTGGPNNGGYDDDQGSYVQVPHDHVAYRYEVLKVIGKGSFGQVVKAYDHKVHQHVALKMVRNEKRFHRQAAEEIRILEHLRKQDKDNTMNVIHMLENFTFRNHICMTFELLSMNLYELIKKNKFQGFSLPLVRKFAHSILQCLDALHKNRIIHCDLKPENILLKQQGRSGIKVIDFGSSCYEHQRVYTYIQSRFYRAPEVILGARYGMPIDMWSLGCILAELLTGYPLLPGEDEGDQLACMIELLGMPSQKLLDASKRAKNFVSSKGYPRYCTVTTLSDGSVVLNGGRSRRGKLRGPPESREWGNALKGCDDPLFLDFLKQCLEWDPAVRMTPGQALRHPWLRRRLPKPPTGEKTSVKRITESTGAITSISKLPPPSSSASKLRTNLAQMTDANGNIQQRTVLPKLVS

PIK4CB = target: T9, PIK4CB (Homo sapiens, UniProt Q9UBF8)
T9 construct: purchased DiscoverX
T9 sequence (Q9UBF8 whole entry): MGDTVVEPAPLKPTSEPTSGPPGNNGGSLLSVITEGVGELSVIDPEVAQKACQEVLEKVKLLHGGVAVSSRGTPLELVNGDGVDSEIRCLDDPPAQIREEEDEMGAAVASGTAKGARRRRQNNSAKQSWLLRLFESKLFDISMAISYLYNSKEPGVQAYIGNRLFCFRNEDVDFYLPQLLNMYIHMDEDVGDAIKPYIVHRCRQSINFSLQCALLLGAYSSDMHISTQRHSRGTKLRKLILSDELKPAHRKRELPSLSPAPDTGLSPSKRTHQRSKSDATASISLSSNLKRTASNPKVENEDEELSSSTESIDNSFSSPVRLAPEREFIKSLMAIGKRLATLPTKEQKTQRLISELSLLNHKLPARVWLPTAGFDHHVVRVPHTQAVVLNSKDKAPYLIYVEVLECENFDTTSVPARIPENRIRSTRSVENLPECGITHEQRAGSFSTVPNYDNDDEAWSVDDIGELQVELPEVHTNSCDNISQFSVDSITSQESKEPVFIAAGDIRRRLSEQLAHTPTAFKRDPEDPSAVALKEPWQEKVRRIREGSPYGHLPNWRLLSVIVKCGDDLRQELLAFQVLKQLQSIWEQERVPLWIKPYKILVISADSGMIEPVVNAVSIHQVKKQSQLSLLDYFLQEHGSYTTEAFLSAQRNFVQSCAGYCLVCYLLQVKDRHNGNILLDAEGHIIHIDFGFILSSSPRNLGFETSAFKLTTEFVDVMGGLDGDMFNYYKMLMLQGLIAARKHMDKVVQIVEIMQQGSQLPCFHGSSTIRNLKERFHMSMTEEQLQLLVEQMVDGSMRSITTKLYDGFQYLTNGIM

T5 sequence (P00533 25-1210 G719C): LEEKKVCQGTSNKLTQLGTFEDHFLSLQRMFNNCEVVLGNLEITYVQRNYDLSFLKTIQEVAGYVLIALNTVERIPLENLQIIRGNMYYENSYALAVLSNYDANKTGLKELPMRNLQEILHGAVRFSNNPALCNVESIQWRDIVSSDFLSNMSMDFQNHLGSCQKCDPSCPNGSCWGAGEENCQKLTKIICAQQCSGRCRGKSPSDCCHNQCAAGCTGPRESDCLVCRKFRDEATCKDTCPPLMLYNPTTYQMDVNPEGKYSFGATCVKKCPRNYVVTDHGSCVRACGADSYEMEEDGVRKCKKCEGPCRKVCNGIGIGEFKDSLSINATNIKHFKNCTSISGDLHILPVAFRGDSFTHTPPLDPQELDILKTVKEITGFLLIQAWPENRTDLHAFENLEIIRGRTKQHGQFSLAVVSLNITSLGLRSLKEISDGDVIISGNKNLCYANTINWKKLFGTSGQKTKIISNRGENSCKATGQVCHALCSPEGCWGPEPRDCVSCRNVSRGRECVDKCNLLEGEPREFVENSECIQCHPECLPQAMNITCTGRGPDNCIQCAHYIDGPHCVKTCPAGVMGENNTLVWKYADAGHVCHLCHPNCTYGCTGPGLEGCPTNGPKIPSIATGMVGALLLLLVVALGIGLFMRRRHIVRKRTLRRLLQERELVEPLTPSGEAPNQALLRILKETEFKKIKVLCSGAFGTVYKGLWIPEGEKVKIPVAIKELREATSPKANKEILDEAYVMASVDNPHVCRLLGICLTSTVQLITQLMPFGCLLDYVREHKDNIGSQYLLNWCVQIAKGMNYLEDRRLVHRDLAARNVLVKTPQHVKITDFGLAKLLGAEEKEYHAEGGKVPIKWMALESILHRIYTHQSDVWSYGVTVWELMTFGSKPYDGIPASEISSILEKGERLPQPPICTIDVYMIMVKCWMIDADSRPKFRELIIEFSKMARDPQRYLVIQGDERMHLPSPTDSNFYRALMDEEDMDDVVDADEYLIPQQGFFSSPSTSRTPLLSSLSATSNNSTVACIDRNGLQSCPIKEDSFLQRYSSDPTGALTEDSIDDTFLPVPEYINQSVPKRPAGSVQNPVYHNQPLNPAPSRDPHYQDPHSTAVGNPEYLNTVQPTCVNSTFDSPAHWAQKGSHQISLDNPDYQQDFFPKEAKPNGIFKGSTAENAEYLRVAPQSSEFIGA
T3 sequence (P10721 26-976 V559D): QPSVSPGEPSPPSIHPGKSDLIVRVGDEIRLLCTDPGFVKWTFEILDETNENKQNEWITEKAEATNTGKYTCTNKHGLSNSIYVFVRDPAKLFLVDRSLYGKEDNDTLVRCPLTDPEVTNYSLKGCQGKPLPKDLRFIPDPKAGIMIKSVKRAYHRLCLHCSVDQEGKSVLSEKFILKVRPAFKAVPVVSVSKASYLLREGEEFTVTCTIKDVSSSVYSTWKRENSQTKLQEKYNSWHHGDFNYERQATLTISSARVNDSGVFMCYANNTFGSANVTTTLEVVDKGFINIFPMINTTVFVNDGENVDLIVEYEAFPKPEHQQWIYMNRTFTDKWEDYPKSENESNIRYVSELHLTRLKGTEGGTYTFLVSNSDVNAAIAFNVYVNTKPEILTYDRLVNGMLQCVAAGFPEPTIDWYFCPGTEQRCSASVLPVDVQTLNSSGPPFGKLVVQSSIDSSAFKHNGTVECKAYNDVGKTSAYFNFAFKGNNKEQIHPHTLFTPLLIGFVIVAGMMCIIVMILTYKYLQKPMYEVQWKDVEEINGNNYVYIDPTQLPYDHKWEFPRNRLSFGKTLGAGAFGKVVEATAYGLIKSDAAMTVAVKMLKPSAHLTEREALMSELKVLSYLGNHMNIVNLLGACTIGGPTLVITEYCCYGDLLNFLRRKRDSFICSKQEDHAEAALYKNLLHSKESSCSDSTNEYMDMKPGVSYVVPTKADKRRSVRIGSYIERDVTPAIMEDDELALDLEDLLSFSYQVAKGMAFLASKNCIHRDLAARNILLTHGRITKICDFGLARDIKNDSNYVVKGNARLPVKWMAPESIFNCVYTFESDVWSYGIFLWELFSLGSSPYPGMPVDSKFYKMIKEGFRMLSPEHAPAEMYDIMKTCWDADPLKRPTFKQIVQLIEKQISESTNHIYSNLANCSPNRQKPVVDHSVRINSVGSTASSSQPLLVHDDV
T6 sequence (Q9Y2I7 whole entry): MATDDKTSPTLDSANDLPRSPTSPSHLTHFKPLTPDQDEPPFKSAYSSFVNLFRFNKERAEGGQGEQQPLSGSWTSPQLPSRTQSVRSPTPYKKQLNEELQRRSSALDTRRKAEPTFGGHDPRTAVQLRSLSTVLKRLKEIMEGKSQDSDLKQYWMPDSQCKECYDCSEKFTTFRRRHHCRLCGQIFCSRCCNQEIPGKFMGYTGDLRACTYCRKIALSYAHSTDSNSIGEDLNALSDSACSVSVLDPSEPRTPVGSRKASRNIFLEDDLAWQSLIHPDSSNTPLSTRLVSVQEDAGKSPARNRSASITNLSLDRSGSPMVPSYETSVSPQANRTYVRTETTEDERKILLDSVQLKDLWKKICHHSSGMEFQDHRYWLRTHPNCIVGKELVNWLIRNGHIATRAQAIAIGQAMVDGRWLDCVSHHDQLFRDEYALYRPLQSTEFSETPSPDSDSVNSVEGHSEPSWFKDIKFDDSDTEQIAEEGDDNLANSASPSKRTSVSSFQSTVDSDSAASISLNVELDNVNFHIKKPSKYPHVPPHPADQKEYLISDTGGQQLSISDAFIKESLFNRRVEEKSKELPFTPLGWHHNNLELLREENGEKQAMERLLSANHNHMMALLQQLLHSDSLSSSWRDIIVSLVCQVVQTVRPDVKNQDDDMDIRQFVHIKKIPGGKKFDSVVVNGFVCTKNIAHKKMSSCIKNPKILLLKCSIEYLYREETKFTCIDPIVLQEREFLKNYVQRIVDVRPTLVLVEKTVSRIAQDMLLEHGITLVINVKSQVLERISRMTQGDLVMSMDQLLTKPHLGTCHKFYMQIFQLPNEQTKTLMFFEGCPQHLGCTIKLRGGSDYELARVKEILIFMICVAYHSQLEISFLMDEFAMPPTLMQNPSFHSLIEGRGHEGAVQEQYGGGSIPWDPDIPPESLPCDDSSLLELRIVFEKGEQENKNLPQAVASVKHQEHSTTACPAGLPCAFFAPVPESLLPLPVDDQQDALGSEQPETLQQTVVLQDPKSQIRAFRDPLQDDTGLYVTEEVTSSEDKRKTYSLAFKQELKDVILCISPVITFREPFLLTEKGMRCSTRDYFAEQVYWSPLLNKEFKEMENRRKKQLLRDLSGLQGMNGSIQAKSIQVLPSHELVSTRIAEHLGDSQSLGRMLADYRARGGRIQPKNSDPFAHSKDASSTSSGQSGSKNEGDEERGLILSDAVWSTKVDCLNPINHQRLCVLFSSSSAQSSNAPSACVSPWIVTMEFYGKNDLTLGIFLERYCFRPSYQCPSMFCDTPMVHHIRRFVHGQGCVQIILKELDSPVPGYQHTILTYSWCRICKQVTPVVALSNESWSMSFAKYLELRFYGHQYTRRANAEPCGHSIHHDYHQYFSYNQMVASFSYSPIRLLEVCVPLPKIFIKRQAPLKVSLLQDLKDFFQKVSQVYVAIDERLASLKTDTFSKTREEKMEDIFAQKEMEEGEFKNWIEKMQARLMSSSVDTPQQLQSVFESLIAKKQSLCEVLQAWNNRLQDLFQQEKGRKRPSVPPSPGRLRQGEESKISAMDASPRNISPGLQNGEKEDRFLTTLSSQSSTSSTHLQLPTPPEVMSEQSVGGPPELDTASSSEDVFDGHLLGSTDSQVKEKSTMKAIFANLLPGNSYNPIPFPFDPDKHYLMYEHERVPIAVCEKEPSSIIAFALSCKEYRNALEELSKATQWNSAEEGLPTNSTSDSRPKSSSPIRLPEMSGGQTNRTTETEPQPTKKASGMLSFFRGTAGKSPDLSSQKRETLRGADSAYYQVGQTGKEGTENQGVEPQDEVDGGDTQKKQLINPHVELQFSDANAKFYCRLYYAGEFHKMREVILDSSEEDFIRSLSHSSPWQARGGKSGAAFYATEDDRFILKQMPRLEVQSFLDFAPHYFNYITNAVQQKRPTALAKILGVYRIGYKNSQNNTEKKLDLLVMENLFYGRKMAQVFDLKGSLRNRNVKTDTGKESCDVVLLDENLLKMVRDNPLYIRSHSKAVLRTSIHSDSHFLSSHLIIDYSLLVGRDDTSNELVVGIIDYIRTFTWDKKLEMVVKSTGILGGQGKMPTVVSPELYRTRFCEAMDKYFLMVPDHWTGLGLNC

Row | SMILES | remaining binding at 10 µM (FLT3(N841I); FLT3(N841I) mutant, 10 μM) | remaining binding at 10 µM (IRAK3; IRAK3, 10 μM) | remaining binding at 10 µM (KIT(V559D); KIT(V559D) mutant, 10 μM) | remaining binding at 10 µM ([1]; JAK3(JH1DOMAIN-[…]), 10 μM) | remaining binding at 10 µM (EGFR(G719C); EGFR(G719C) mutant, 10 μM) | remaining binding at 10 µM (PIKFYVE; PIKFYVE, 10 μM) | remaining binding at 10 µM (FLT3(N841I)) | remaining binding at 10 µM (PIM2) | remaining binding at 10 µM (IRAK3) | remaining binding at 10 µM (KIT(V559D)) | remaining binding at 10 µM [1] | remaining binding at 10 µM (EGFR(G719C)) | remaining binding at 10 µM (DYRK2) | remaining binding at 10 µM (PIK4CB) | remaining binding at 10 µM (PIKFYVE) | remaining binding at 10 µM (PIM2; PIM2, 10 μM) | remaining binding at 10 µM (PIK4CB; PIK4CB, 10 μM)
1 | COc1ccc2c(c1)[nH]c1c(C)nc(CO)cc12 [Compound 2-8, (1-Methyl-7-methoxy-9H-pyrido[3,4-b]indol-3-yl)methanol] | 74% | 70% | 82% | 96% | 98% | 88% | – | – | – | – | – | – | – | – | – | – | –
2 | COc1ccc2c3ccnc(C)c3n(CCCc3noc(N)n3)c2c1 [Compound 20-13, 3-(3-(7-Methoxy-1-methyl-β-carbolin-9-yl)propyl)-5-amino-1,2,4-oxadiazole] | – | – | – | – | – | – | 78% | 38% | 62% | 100% | 87% | 93% | 9.1% | 9.9% | 3.2% | – | –
3 | C#CCn1c2cc(OC)ccc2c2ccnc(C)c21 [Compound 20-23a, 3-(7-Methoxy-1-methyl-β-carbolin-9-yl)-propan-1-yne] | – | 34% | – | 100% | – | – | 41% | – | – | 90% | – | 92% | 5.2% | – | 60% | 19% | 0%
4 | COc1ccc2c(c1)[nH]c1c(C)nccc12 [Harmine, reference compound] | – | – | – | – | – | – | – | 39% | 35% | – | 61% | – | 3.2% | 12% | – | – | –
